In patent publication US8871767B2, “2-arylimidazo[1,2-B]pyridazine, 2-phenylimidazo[1,2-A]pyridine, and 2-phenylimidazo[1,2-A]pyrazine derivatives” (Hengrui (USA) Ltd., priority 2010, dated 2014):
Read-outs that look alike come from different tables or passages of the source.

Experiments:
[1] = tested on: Hedgehog pathway activation (GLi-luciferase reporter) in Shh Light II reporter cells; assay: Hedgehog pathway activation on Shh Light II reporter cells measured by luciferase activity; format: cell-based
Method in brief: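 Shh Light II reporter cells carrying a hedgehog-responsive GLi-luciferase reporter were stimulated either with 500 nM SAG, a direct Smoothened agonist, or with conditioned media containing human Sonic Hedgehog (hShh). Test compounds were evaluated for blocking this pathway activation, quantified by luciferase activity. Cell viability was monitored in parallel with the Celltiter-Blue® assay.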

[2] = tested on: Hedgehog pathway activation on 10T1/2/Smo#3 cells (C3H10T1/2 cells transfected with human Smoothened receptor); assay: Hedgehog pathway activation on 10T1/2/Smo#3 cells measured by ALP activity; format: cell-based; details: Mus musculus, C3H 10T1/2, 10T1/2/Smo#3 cells
Method in brief: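 Inhibition of alkaline phosphatase induction, read fluorometrically from 4-methylumbelliferyl phosphate conversion, gave IC50 values; CellTiter-Blue tracked viability in parallel. Cells were the human Smo-transfected 10T1/2/Smo#3 pool, stimulated by 10-20% hShh conditioned medium or the Smo agonist SAG (500 nM).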

[3] = Mus musculus, Shh Light II, SAG activation (500 nM SAG), read-out: Shh Light II luciferase activity (SAG activation)
[4] = Mus musculus, Shh Light II, hShh activation, read-out: Shh (IC50, inhibition of Hedgehog pathway activation)
[5] = Mus musculus, Shh Light II, hShh activation, read-out: Shh Light II luciferase activity (hShh activation)
[6] = hShh activation, ALP activity, read-out: 10T1/2/Smo#3 ALP activity (hShh Activation)
[7] = measured by ALP activity, read-out: ALP (IC50, inhibition of Hedgehog pathway activation)

SMILES	IC50 [1, 3] [nM]	IC50 [1, 4] [nM]	IC50 [1, 5] [nM]	IC50 [2, 6] [nM]	IC50 [2, 7] [nM]	IC50 ([1]; hShh activation, read-out: Shh (IC50, inhibition of Hedgehog pathway activation)) [nM]
CC(C)(C)C(=O)Nc1cc(-c2cn3nc(C(N)=O)ccc3n2)ccc1C(F)(F)F [Example 180, 2-(3-pivalamido-4-(trifluoromethyl)phenyl)imidazo[1,2-b]pyridazine-6-carboxamide]	3000 to 30000	3880	3000 to 30000	3000 to 30000	5730	–
Cc1c(-c2ccccc2)nc2ccc(N3CCN(Cc4cccnc4)CC3)nn12 [Example 161, 3-methyl-2-phenyl-6-(4-(pyridin-3-ylmethyl)piperazin-1-yl)imidazo[1,2-b]pyridazine]	300 to 3000	911	300 to 3000	300 to 3000	404	–
CC(C)(C)C(=O)Nc1cc(-c2cn3nc(-c4cc(F)ccc4C(F)(F)F)ccc3n2)ccc1C(F)(F)F [Example 291, N-(5-(6-(5-fluoro-2-(trifluoromethyl)phenyl)imidazo[1,2-b]pyridazin-2-yl)-2-(trifluoromethyl)phenyl)pivalamide]	–	289	–	–	325	–
CC(=O)NC1CCN(c2ccc3nc(-c4ccc(C(F)(F)F)c(NC(=O)C(C)(C)C)c4)cn3n2)C1 (stereo not shown) [Example 351, N-(5-(6-(3-acetamidopyrrolidin-1-yl)imidazo[1,2-b]pyridazin-2-yl)-2-(trifluoromethyl)phenyl)pivalamide]	–	38	–	–	21	–
CC(C)(C)C(=O)Nc1cc(-c2cn3nc(N(CCO)CCO)ccc3n2)ccc1C(F)(F)F [Example 359, N-(5-(6-(bis(2-hydroxyethyl)amino)imidazo[1,2-b]pyridazin-2-yl)-2-(trifluoromethyl)phenyl)pivalamide]	–	1850	–	–	1900	–
CCOC(=O)CCCCCCOc1ccc(-c2ccc3nc(-c4ccc(C)c(NC(=O)C(C)(C)C)c4)cn3n2)c(C(F)(F)F)c1 [Example 413, ethyl 7-(4-(2-(4-methyl-3-pivalamidophenyl)imidazo[1,2-b]pyridazin-6-yl)-3-(trifluoromethyl)phenoxy)heptanoate]	–	318	–	–	548	–
Cc1ccc(-c2cn3nc(-c4ccc(C#N)cc4Cl)ccc3n2)cc1NC(=O)C(C)(C)C [compound 564]	–	20	–	–	60	–
CC(C)(C)C(=O)Nc1cc(-c2cn3nc(-c4cncc5ccccc45)ccc3n2)ccc1C(F)(F)F [Example 385, N-(5-(6-(isoquinolin-4-yl)imidazo[1,2-b]pyridazin-2-yl)-2-(trifluoromethyl)phenyl)pivalamide]	300 to 3000	778	300 to 3000	300 to 3000	1380	–
CC(C)(C)C(=O)Nc1cc(-c2cn3nc(N4CC[C@H](O)C4)ccc3n2)ccc1C(F)(F)F [Example 340, (S)-N-(5-(6-(3-hydroxypyrrolidin-1-yl)imidazo[1,2-b]pyridazin-2-yl)-2-(trifluoromethyl)phenyl)pivalamide]	–	115	–	–	114	–
CCOc1ccc2nc(-c3ccc(C(F)(F)F)c(S(=O)(=O)NCc4ccccc4)c3)cn2n1 [Example 215, N-benzyl-5-(6-ethoxyimidazo[1,2-b]pyridazin-2-yl)-2-(trifluoromethyl)benzenesulfonamide]	–	> 10000	–	–	3120	–
CCOc1ccc2nc(-c3ccc(C(F)(F)F)c(S(=O)(=O)NC4CC4)c3)cn2n1 [Example 212, N-cyclopropyl-5-(6-ethoxyimidazo[1,2-b]pyridazin-2-yl)-2-(trifluoromethyl)benzenesulfonamide]	3000 to 30000	> 10000	3000 to 30000	3000 to 30000	5760	–
CC(C)(C)C(=O)Nc1cc(-c2cn3nc(-c4ccc(F)nc4)ccc3n2)ccc1C(F)(F)F [Example 174, N-(5-(6-(6-fluoropyridin-3-yl)imidazo[1,2-b]pyridazin-2-yl)-2-(trifluoromethyl)phenyl)pivalamide]	–	689	–	–	215	–
CCOc1ccc2nc(-c3ccc(C(F)(F)F)c(S(=O)(=O)NCc4ccc(F)cc4)c3)cn2n1 [Example 213, 5-(6-ethoxyimidazo[1,2-b]pyridazin-2-yl)-N-(4-fluorobenzyl)-2-(trifluoromethyl)benzenesulfonamide]	–	> 10000	–	–	3860	–
CCOc1ccc2nc(-c3ccc(C(F)(F)F)c(S(=O)(=O)NC(C)(C)C)c3)cn2n1 [Example 216, N-tert-butyl-5-(6-ethoxyimidazo[1,2-b]pyridazin-2-yl)-2-(trifluoromethyl)benzenesulfonamide]	–	8570	–	–	8280	–
CCOc1ccc2nc(-c3ccc(C(F)(F)F)c(NC(=O)C4CCCCC4)c3)cn2n1 [Example 190, N-(5-(6-ethoxyimidazo[1,2-b]pyridazin-2-yl)-2-(trifluoromethyl)phenyl)cyclohexanecarboxamide]	–	> 10000	–	–	5260	–
CC(C)(C)C(=O)Nc1cc(-c2cn3nc(N4CCOCC4)ccc3n2)ccc1C(F)(F)F [Example 232, N-(5-(6-morpholinoimidazo[1,2-b]pyridazin-2-yl)-2-(trifluoromethyl)phenyl)pivalamide]	–	428	–	–	414	–
CC(C)Oc1ccc(F)c(-c2ccc3nc(-c4ccc(C(F)(F)F)c(NC(=O)C(C)(C)C)c4)cn3n2)c1 [Example 252, N-(5-(6-(2-fluoro-5-isopropoxyphenyl)imidazo[1,2-b]pyridazin-2-yl)-2-(trifluoromethyl)phenyl)pivalamide]	–	722	–	–	392	–
COC(=O)CCCCCCC(=O)Nc1ccc(-c2ccc3nc(-c4ccc(C)c(NC(=O)C(C)(C)C)c4)cn3n2)cc1 [compound 556]	–	395	–	–	737	–
CC(C)(C)C(=O)Nc1cc(-c2cn3nc(N4CCC(O)C4)ccc3n2)ccc1C(F)(F)F (stereo not shown) [Example 337, N-(5-(6-(3-hydroxypyrrolidin-1-yl)imidazo[1,2-b]pyridazin-2-yl)-2-(trifluoromethyl)phenyl)pivalamide]	–	–	–	–	194	308
CCOc1nn2cc(-c3ccc(C(F)(F)F)c(NC(=O)C(C)(C)C)c3)nc2c(C)c1C [Example 201, N-(5-(6-ethoxy-7,8-dimethylimidazo[1,2-b]pyridazin-2-yl)-2-(trifluoromethyl)phenyl)pivalamide]	–	402	–	–	869	–

Other lines, results leading:

IC50 [1, 3] [nM]	IC50 [1, 4] [nM]	IC50 [1, 5] [nM]	IC50 [2, 6] [nM]	IC50 [2, 7] [nM]	IC50 ([1]; hShh activation, read-out: Shh (IC50, inhibition of Hedgehog pathway activation)) [nM]	SMILES
–	79	–	–	97	–	CC(C)(C)C(=O)Nc1cc(-c2cn3nc(-c4cccnc4F)ccc3n2)ccc1C(F)(F)F [Example 176, N-(5-(6-(2-fluoropyridin-3-yl)imidazo[1,2-b]pyridazin-2-yl)-2-(trifluoromethyl)phenyl)pivalamide]
–	20	–	–	20	–	Cc1ccc(-c2cn3nc(-c4cccnc4C(F)(F)F)ccc3n2)cc1NC(=O)C(C)(C)C(F)(F)F [Example 638, 3,3,3-trifluoro-2,2-dimethyl-N-(2-methyl-5-(6-(2-(trifluoromethyl)pyridin-3-yl)imidazo[1,2-b]pyridazin-2-yl)phenyl)propanamide]
–	72	–	–	15	–	CC(C)(C)C(=O)Nc1cc(-c2cn3nc(-c4cccnc4C(F)(F)F)ccc3n2)ccc1C1CC1 [Example 644, N-(2-cyclopropyl-5-(6-(2-(trifluoromethyl)pyridin-3-yl)imidazo[1,2-b]pyridazin-2-yl)phenyl)pivalamide]
–	64	–	–	203	–	CCCC(C)(C)C(=O)Nc1cc(-c2cn3nc(-c4cccnc4C(F)(F)F)ccc3n2)ccc1Cl [Example 667, N-(2-chloro-5-(6-(2-(trifluoromethyl)pyridin-3-yl)imidazo[1,2-b]pyridazin-2-yl)phenyl)-2,2-dimethylpentanamide]
–	> 10000	–	–	1860	–	Cn1cccc1-c1ccc2nc(-c3ccc(C(F)(F)F)c(NC(=O)C(C)(C)C)c3)cn2n1 [Example 379, N-(5-(6-(1-methyl-1H-pyrrol-2-yl)imidazo[1,2-b]pyridazin-2-yl)-2-(trifluoromethyl)phenyl)pivalamide]
–	56	–	–	139	–	Cc1ccc(-c2cn3nc(-c4ccc(S(N)(=O)=O)cc4C(F)(F)F)ccc3n2)cc1NC(=O)C(C)(C)C [compound 535]
–	799	–	–	513	–	COc1ncccc1-c1ccc2nc(-c3ccc(C(F)(F)F)c(NC(=O)C(C)(C)C)c3)cn2n1 [Example 175, N-(5-(6-(2-methoxypyridin-3-yl)imidazo[1,2-b]pyridazin-2-yl)-2-(trifluoromethyl)phenyl)pivalamide]
300 to 3000	72	< 300	< 300	114	–	Cc1ccc(-c2cn3nc(-c4cccnc4C(F)(F)F)ccc3n2)cc1C(=O)NC(C)(C)C [Example 483, N-tert-butyl-2-methyl-5-(6-(2-(trifluoromethyl)pyridin-3-yl)imidazo[1,2-b]pyridazin-2-yl)benzamide]
< 300	23	< 300	< 300	70	–	CCN(CC)C(=O)Nc1cc(-c2cn3nc(-c4cccnc4C(F)(F)F)ccc3n2)ccc1Cl [Example 655, 3-(2-chloro-5-(6-(2-(trifluoromethyl)pyridin-3-yl)imidazo[1,2-b]pyridazin-2-yl)phenyl)-1,1-diethylurea]
